According to patent US20240117385A1, “ENZYMES OF LUCIFERIN BIOSYNTHESIS AND USE THEREOF” (LIGHT BIO, INC., priority 2018, published 2024):

Key:
[1] = tested on: Neonothopanus nambi luciferase; test: Bioluminescence reaction of biosynthetic 3-hydroxyhispidin; assay type: biochemical; details: 3-hydroxyhispidin purified from fermenter medium by HPLC
From the text: Expression cassette, comprising nucleic acid coding Neonothopanus nambi hispidin hydroxylase (SEQ ID NOs 1, 2) under control of J23100 promoter, was obtained synthetically and cloned into bacterial expression vector comprising spectinomycin resistance gene. The obtained vector was transformed into E. coli cells expressing Neonothopanus nambi hispidin-synthase, Zeocin resistance gene and NpgA gene, obtained according to Example 12. The obtained bacteria were used for producing 3-hydroxyhispidin by fermentation according to the protocol described in Example 12, however with adding of spectinomycin at concentration of […] in all media used for cultivation. After 48 hours of cultivation the 3-hydroxyhispidin concentration in the medium was 2.3 g/l.

[2] = tested on: hispidin hydroxylase and luciferase fusion protein; test: Bioluminescence of HEK293T cells expressing hispidin hydroxylase and luciferase fusion protein; assay type: cell-based, Neonothopanus nambi; details: 24 hours after transfection, 1 million of cells in 0.5 ml PBS; hispidin 10 μg per 1 million of cells
From the text: Humanized DNA sequences coding hispidin-hydroxylase and luciferase of Neonothopanus nambi, obtained according to Example 2, were operatively cross-linked to each other by flexible short peptide linker with amino acid sequence GGSGGSGGS (SEQ ID NOs:115). Nucleotide and amino acid sequences of the obtained fused protein are shown in SEQ ID NO 101 and 102. Nucleic acid coding fused protein was cloned into pEGFP-N1 vector (Clontech, USA) instead of EGFP gene under Cytomegaloviral promoter control. The obtained structure was transfected into HEK293T cells. Analogous vectors, comprising individual genes of hispidin hydroxylase and luciferase, were also co-transfected. Transfection was performed by transfection agent FuGENE HD (Promega, USA) according to the manufacturer's protocol. 24 hours after transfection 1 million of cells were resuspended in 0.5 ml of PBS, and luminescence without adding hispidin and with addition of hispidin (10 μg per 1 million of cells) was recorded by luminometer.

[3] = tested on: hispidin-synthase of Neonothopanus nambi; test: Determination of hispidin synthase functionality; assay type: biochemical; details: 20 μM caffeic acid
From the text: (§1) Polyhistidine (H is tag) coding sequence was operatively attach ed to 5′-ends of nucleic acids coding hispidin-synthase and caffeylpyruvate hydrolase of Neonothopanus nambi, obtained according to Example 9, and the obtained structures were cloned into pET-23 vector by means of restriction endonucleases NotI and SacI. The vectors were used for transformation of Escherichia coli cells of BL21-DE3-codon+ strain, performed by electroporation. The transformed cells were dispersed in Petri dishes with LB medium, comprising 1.5% of agar, 100 μg/ml of ampicillin, and incubated overnight at 37° C. […]
(§2) For determination of hispidin synthase functionality 30 μl of isolated recombinant protein solution were put into a glass tube, comprising 100 μl of the buffer (0.2 M of Na-phosphate buffer, 0.5 M of Na2SO4, 0.1% dodecylmaltoside (DDM) pH 8.0, all components—Sigma-Aldrich, USA), 0.5 μl of purified recombinant luciferase of Neonothopanus nambi, obtained according to Example 4, 1 mM of NADPH (Sigma-Aldrich, USA), 15 μl of purified recombinant hispidin hydroxylase of Neonothopanus nambi, obtained according to Example 4, 10 mM of ATP (ThermoFisher Scientific, USA), 1 mM of CoA (Sigma-Aldrich, USA), 1 mM of malonyl-CoA (Sigma-Aldrich, USA). […] Maximum emission of the emitted luminescence was 520-535 nm.

[4] = tested on: Autonomously bioluminescent transgenic plants Nicotiana benthamiana; test: Effect of external adding caffeic acid on transgenic plant bioluminescence; assay type: in vivo; details: 0.4-6.4 g/l, two hours of incubation
Protocol: Autonomously bioluminescent transgenic plants Nicotiana benthamiana, obtained according to Example 16, were transferred to soil and cultured within eight weeks. Then, plant stem was cut and placed in water for two hours, after that, bioluminescence intensity was measured by IVIS Spectrum In Vivo Imaging System (Perkin Elmer). Then, plants were transferred to one of five water solutions at caffeic acid concentration of 0.4 g/l, 0.8 g/l, 1.6 g/l, 3.2 g/l, or 6.4 g/l, and control plants were placed in water. After two more hours of incubation in the caffeic acid solution or in water bioluminescence intensity was measured again.

[5] = tested on: caffeylpyruvate hydrolase of Neonothopanus nambi; test: Determination of caffeylpyruvate hydrolase functionality; assay type: biochemical; details: 25 μM caffeoyl pyruvate
From the text: as §1
For determination of caffeylpyruvate hydrolase functionality 10 μl of isolated recombinant protein solution were put into a glass tube, comprising 100 μl of the buffer (0.2 M of Na-phosphate buffer, 0.5 M of Na2SO4, 0.1% dodecylmaltoside (DDM) pH 8.0, 0.5 μl of luciferase of Neonothopanus nambi, 1 mM of NADPH (Sigma-Aldrich, USA), 15 μl of hispidin hydroxylase 10 mM of ATP (ThermoFisher Scientific, USA), 1 mM of CoA (Sigma-Aldrich, USA), 1 mM of malonyl-CoA (Sigma-Aldrich, USA), 30 μl of purified recombinant hispidin synthase. The glass tube was placed into a luminometer GloMax 20/20 (Promega, USA). […] Maximum emission of the emitted luminescence was 520-535 nm.

[6] = tested on: PKS from Hydrangea macrophylla; test: Functionality of recombinant PKS; assay type: biochemical; details: 20 μM caffeyl-CoA
Protocol: as §2, with “Nucleic acid coding PKS from Hydrangea macrophylla (SEQ ID NOs: 124, 125) was used for producing recombinant protein according to the technique described in Example 4. Presence” for “For determination”, “the expected recombinant product was confirmed by electrophoresis as bands of the expected length were available. Aliquots of the isolated recombinant protein were used for verifying” for “hispidin synthase”, “functionality of:” for “functionality”, “USA). The glass tube was placed into a luminometer GloMax 20/20 (Promega, USA).” for “USA).”

[7] = tested on: recombinant hispidin hydroxylases; test: Functionality test of isolated recombinant hispidin hydroxylases in luminometer; assay type: biochemical; details: 0.2 μM hispidin, 1 mM NADPH, Neonothopanus nambi luciferase
Protocol: Polyhistidine sequence (His tag) was operatively attached to 5′-end of nucleic acids coding hispidin-3-hydroxylases and luciferase from Neonothopanus nambi, obtained according to the examples 1 and 2. The obtained structures were cloned into pET-23 vector by means of restriction endonucleases BamHI and HindIII. The vector was used for transformation of Escherichia coli cells of BL21-DE3 strain. The cells were dispersed in Petri dishes with LB medium, comprising 1.5% of agar, 100 μg/ml of ampicillin, and incubated overnight at 37° C. Then, Escherichia coli colonies were transferred into 4 ml of liquid LB medium laced with ampicillin, incubated overnight at 37° C. with fluctuation. 1 ml of overnight culture was transferred into 100 ml of Overnight Express Autoinduction medium (Novagen), where ampicillin was preliminarily added to. The culture was grown at 37° C. within 2.5 hours until reaching optical density of 0.6 OE at 600 nm, and then it was grown at room temperature within 16 hours. […]
Aliquots of isolated recombinant hispidin hydroxylases were used for testing functionality and stability. […] In all cases the luminescence intensity when using hispidin was the highest when using Neonothopanus nambi hispidin hydroxylase and the lowest when using Armillaria mellea hispidin hydroxylase.

Arabidopsis thaliana = test: Caffeylpyruvate hydrolase effect on luminescence of autonomously bioluminescent plants; assay type: in vivo; details: on average
From the text: For the purpose of study of caffeylpyruvate hydrolase effect on luminescence of autonomously bioluminescent organisms there was used a binary vector for agrobacterium transformation comprising coding sequences of Neonothopanus nambi luciferase, Neonothopanus nambi hispidin hydroxylase, Neonothopanus nambi hispidin synthase, Neonothopanus nambi caffeylpyruvate hydrolase and kanamycin resistance gene, and each gene is under control of 35S promoter from cauliflower mosaic virus, obtained according to Example 16, and control vector characterized in that caffeylpyruvate hydrolase sequence was removed from it. The vectors were used for transformation of Arabidopsis thaliana in the same conditions according to the protocol described in Example 16. Bioluminescence was visualized by means of IVIS Spectrum In Vivo Imaging System (Perkin Elmer). […] The data provided indicate that expression of caffeylpyruvate hydrolase enables to increase bioluminescent cascade efficiency, that results in increasing the intensity of luminescence emitted by plants.

Molecule: O=c1oc(/C=C/c2ccc(O)c(O)c2)cc(O)c1O [3-hydroxy hispidin, (E)-6-(3,4-dihydroxystyryl)-3,4-dihydroxy-2H-pyran-2-one]
- activity in bioluminescence reaction [1]: active in bioluminescence reaction
- cell luminescence on addition [2]: caused bioluminescent signal

Molecule: O=C(O)/C=C/c1ccc(O)c(O)c1 [caffeic acid]
- bioluminescence of reaction mixture [3]: demonstrated bioluminescence
- change of bioluminescence intensity vs before placing in caffeic acid solution [4]: increased

Molecule: O=C(/C=C/c1ccc(O)c(O)c1)/C=C(/O)C(=O)O [caffeoyl pyruvate, (2E,5E)-6-(3,4-dihydroxyphenyl)-2-hydroxy-4-oxohexa-2,5-diene acid]
- Bioluminescence of the reaction mixture [5]: Bioluminescence of the reaction mixture was detected

Molecule: CC(C)(COP(=O)(O)OP(=O)(O)OC[C@H]1O[C@@H](n2cnc3c(N)ncnc32)[C@H](O)[C@@H]1OP(=O)(O)O)[C@@H](O)C(=O)NCCC(=O)NCCSC(=O)/C=C/c1ccc(O)c(O)c1 [caffeyl-CoA]
- bioluminescence of reaction mixtures [6]: demonstrated bioluminescence

B1: Neonothopanus nambi hispidin hydroxylase: isolated recombinant hispidin hydroxylase from Neonothopanus nambi (protein, listed as Neonothopanus nambi)
chain: MASFENSLSVLIVGAGLGGLAAAIALRRQGHVVKIYDSSSFKAELGAGLAVPPNTLRSLQQLGCNTENLNGVDNLCFTAMGYDGSVGMMNNMTDYREAYGTSWIMVHRVDLHNELMRVALDPGGLGPPATLHLNHRVTFCDVDACTVTFTNGTTQSADLIVGADGIRSTIRRFVLEEDVTVPASGIVGFRWLVQADALDPYPELDWIVKKPPLGARLISTPQNPQSGVGLADRRTIIIYACRGGTMVNVLAVHDDERDQNTADWSVPASKDDLFRVFHDYHPRFRRLLELAQDINLWQMRVVPVLKKWVNKRVCLLGDAAHASLPTLGQGFGMGLEDAVALGTLLPKGTTASQIETRLAVYEQLRKDRAEFVAAESYEEQYVPEMRGLYLRSKELRDRVMGYDIKVESEKVLETLLRSSNSA
- luminescence intensity when using hispidin (comparison of hispidin hydroxylases) [7]: highest

B2: Neonothopanus nambi caffeylpyruvate hydrolase: enzyme converting caffeylpyruvate to caffeic acid, expressed in transgenic plants (protein, listed as Neonothopanus nambi)
chain: MAPISSTWSRLIRFVAIETSLVHIGEPIDATMDVGLARREGKTIQAYEIIGSGSALDLSAQVSKNVLTVRELLMPLSREEIKTVRCLGLNYPVHATEANVAVPKFPNLFYKPVTSLIGPDGLITIPSVVQPPKEHQSDYEAELVIVIGKAAKNVSEDEALDYVLGYTAANDISFRKHQLAVSQWSFSKGFGSLLLTIRMAQTHSGNINRFSRDQIFNVKKTISFLSQGTTLEPGSIILTGTPDGVGFVRNPPLYLKDGDEVMTWIGSGIGTLANTVQEEKTCFASGGHE
- brightness of bioluminescence vs plants expressing only luciferase, hispidin hydroxylase and hispidin synthase (Arabidopsis thaliana): 8.3 times
